This is an account of results in patent US20230241257A1, “BIOTIN-MODIFIED DIMER AND USE THEREOF” (THE UNIVERSITY OF TOKYO, priority 2020, published 2023).

The series relates to human stomach cancer cells (MKN-45). Description: Experiment 4: pharmacokinetics of ^211At-psyche-B in the absence of Cupid-scFv antibody in MKN-45 cancer-bearing mouse models. The series is classed as in vivo, mice (BALB/cSlc nu/nu). Particulars: no Cupid-scFv antibody. Here is the method: The present experiment used human stomach cancer cells (MKN-45) expressing carcinoembryonic antigen (CEA). 9-week-old male immunodeficient mice (BALB/cSlc nu/nu) were used. MKN-45 cells (1×10^7/0.1 ml) were transplanted into the mice's subcutis on the right shoulder dorsal side to produce cancer-bearing mouse models. The mice were divided into four groups when the tumor volume became a predetermined size (on Day 14 after the transplantation), and ^211At-psyche-B (about 0.25 MBq/[…]) was administered via the caudal vein of each mouse. One minute, 1 hour, 6 hours, and 24 hours after administration of the ^211At-psyche-B, the mice were euthanized by collecting whole blood from the heart of each mouse under isoflurane anesthesia, and tumor tissues and normal tissues/organs were then excised. Normal tissues/organs: skin (lower right limb), muscle (right gastrocnemius), heart, lung, spleen, pancreas, white fat (upper portion of right side testis), testis (both sides), stomach, stomach contents, small intestine (including contents), large intestine (including contents), liver, brown fat (interscapular), submandibular gland, thyroid gland (together with trachea), bone (right femur), brain, eyeball, bladder, and urine; the remaining residues were divided into three equal parts, and the three equal parts were defined to be residue-1, residue-2, and residue-3. After that, the weights of blood, plasma, urine, tumor, and normal tissues/organs were measured, and the radioactivity thereof was then measured using a γ counter. The amounts of the ^211At-psyche-B (radioactivity) accumulated in the blood, plasma, urine, tumor, and normal tissues/organs were calculated. That is to say, the rates (% ID/g) of the ^211At-psyche-B accumulated per unit weight (g) of the blood, plasma, urine, tumor, and normal tissues/organs, in the administered ^211At-psyche-B, were shown. Regarding accumulation of the ^211At-psyche-B in the thyroid gland, since the weight of the thyroid gland could not be precisely measured, it was shown that the rate (% ID) of the ^211At-psyche-B accumulated in the thyroid gland in the administered ^211At-psyche-B.

With `N=C1N[C@H]2[C@H](CS[C@H]2CCCCC(=O)NCCCCCC(=O)Nc2cc(NC(=O)CCCCCNC(=O)CCCC[C@@H]3SC[C@@H]4NC(=N)N[C@@H]43)cc(C(=O)NCCOCCOCCNC(=O)c3cccc([211At])c3)c2)N1` [^211At-psyche-B], for the setting “after 1 minute”, the “Accumulation in the blood” value came to 10.4±1.1 % ID/g, the “Accumulation in the kidney” value is given as 61.4±6.5 % ID/g, the “Accumulation in the liver” value is reported as 49.1±6.2 % ID/g and the “Accumulation in the tumor” value is 0.3±0.05 % ID/g. Besides, for the setting “after 1 hour”, the “Accumulation in the blood” value turned out to be 3.8±0.3 % ID/g, the “Accumulation in the kidney” value is 57.2±3.1 % ID/g, the “Accumulation in the liver” value turned out to be 35.3±3.3 % ID/g and the “Accumulation in the tumor” value came to 1.0±0.1 % ID/g. Besides, where the note is “after 6 hours”, the “Accumulation in the blood” value was 0.4±0.1 % ID/g, the “Accumulation in the kidney” value is listed as 17.7±1.9 % ID/g, the “Accumulation in the liver” value was 16.8±0.7 % ID/g and the “Accumulation in the thyroid gland” value is listed as 0.16±0.06 % ID. For the setting “after 6 hours”, the “Accumulation in the tumor” value came to 1.0±0.1 % ID/g. Besides, where the note is “after 24 hours”, the “Accumulation in the blood” value stood at 0.2±0.04 % ID/g, the “Accumulation in the kidney” value was 5.1±0.9%, the “Accumulation in the liver” value is 9.0±1.4% and the “Accumulation in the tumor” value amounted to 0.3±0.02%.
